Test system: HCV replicon RNA replication in human Huh7 hepatoma cells
Test: HCV replicon assay (activity levels from either or both of HCV replicon assay 1, Huh7/Clone A RT-qPCR, and assay 2, Huh7 ET luc-ubi-neo/ET)
Type: cell-based, Hepatitis C virus (HCV)
Settings: Hepatitis C virus, Huh-7, either or both HCV replicon assays: Huh7/Clone A, 48 hours, 72 hours, Luc activity or RT-PCR, read-out: inhibit HCV replication at IC50 levels or estimated IC50 levels
Method in brief: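 Huh7/Clone A subgenomic replicon cells treated 48 h at 37° C. with 7 serial dilutions in triplicate (0.5% DMSO final). Replicon RNA measured by TaqMan RT-qPCR on the neo gene, normalized to RiboGreen total RNA; untreated cells set as 100% for IC50.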

CC(C)(c1ccccc1)c1nc(-c2cn(C(C)(C)c3ccccc3)c3cc(N4CCOCC4)c(F)cc3c2=O)no1 [Compound 144, 6-fluoro-7-morpholino-1-(2-phenylpropan-2-yl)-3-(5-(2-phenylpropan-2-yl)-1,2,4-oxadiazol-3-yl)quinolin-4(1H)-one]
IC50: > 10 µM
